Data taken from US10039845B2, “Labeled inhibitors of prostate specific membrane antigen (PSMA) biological evaluation, and use of imaging agents” (THE JOHNS HOPKINS UNIVERSITY, priority 2007, dated 2018).

Assays:
LNCaP (PSMA+) tumor = experiment: In vivo binding specificity (blocking) study, SPECT-CT; design: species or system mice; conditions: LNCaP tumor bearing animal, PMPA 50 mg/kg (1 mg), images 30-60 min postinjection
Experimental: SPECT-CT imaging was then performed as described above, with both animals on the scanner gantry.

PSMA+ PC3 PIP cells = experiment: In vitro fluorescence microscopy in PC3 PIP and PC3 flu cells; assay type: cell-based, human; conditions: excitation 494 nm, emission 628 nm, 1 h incubation
Experimental: Coordination of the bisquinoline moiety of L2 with Re(CO)3 renders this complex fluorescent. Accordingly, microscopy was performed using ReL2 in live cells (FIG. 2). […] The mechanism of internalization of PSMA has been studied previously, however only antibodies and antibody conjugates have been used, rather than small molecules (Rajasekaran, S. A.; et al. Mol Biol Cell 2003, 14, 4835-4845; Moffatt, S.; et al. Gene Ther 2006, 13, 761-772).
Following fresh preparation of ReL2, 10,000 PC3 PIP and PC3 flu cells were seeded separately into each of four wells of a Lab-Tek II 8-well chamber slide (Fisher Scientific). The cells were cultured as described above and were allowed to attach to the bottom of the wells overnight at 37° C. in 5% CO2 in air. […] The cells were then returned to the incubator for one hour to enable binding. Each well was then carefully washed by removing the supernatant followed by addition of warm culture media for 30 seconds. The wash media was then removed and added to the contents of the well chambers. Dako Cytomation mounting medium was then applied and a glass coverslip was added. The mounting medium was allowed to dry at ambient temperature for 20 min prior to storage of the slide at 4° C. overnight. The cells were then viewed using an Olympus BX61 fluorescence microscope equipped with a Semrock DAPI/FITC/Texas Red triple filter cube.

PSMA = biological target: T1, PSMA (Homo sapiens, UniProt Q04609); experiment: NAALADase assay (NAAG hydrolysis, LNCaP cell extracts); assay type: biochemical
T1 construct: LNCaP cell extracts were prepared by sonication in NAALADase buffer; endogenous in cells; host or cells: LNCaP cell extract (sonicated in 50 mM Tris pH 7.4, 0.5% Triton X-100)
Experimental: The relative binding affinities of L1-L7 and ReL1-ReL7, were determined using the N-acetylated-α-linked acidic dipeptidase (NAALADase) assay as previously described.
NAAG hydrolysis was performed essentially as described previously (Robinson, M. B.; et al. J Biol Chem 1987, 262, 14498-14506; Lupold, S. E.; et al. Cancer Res 2002, 62, 4029-4033.). In short, LNCaP cell extracts were prepared by sonication in NAALADase buffer [50 mM Tris (pH 7.4) and 0.5% Triton X-100]. Cell lysates were incubated with or without inhibitor at 37° C. for 10 minutes. Following the incubation the radiolabeled substrate N-acetyl-L-aspartyl-L-(3,4-^3H)glutamate (NEN Life Science Products, Boston, Mass.) was added to a final concentration of 30 nM at 37° C. for 10-15 min. The reaction was stopped by the addition of an equal volume of ice-cold 100 mM sodium phosphate and 2 mM EDTA. Products were partitioned by AG 1-X8 formate resin (Bio-Rad Laboratories) anion exchange chromatography, eluted with 1 M sodium formate, and quantified by liquid scintillation counting. […] Assays were performed in triplicate with the entire inhibition study being repeated at least once to confirm affinity and mode of inhibition. Data were collected during linear phase of hydrolysis (i.e., <20% cleavage of total substrate). Enzyme inhibitory constants (Ki values) were generated using the Cheng-Prusoff conversion (Cheng, Y.; Prusoff, W. H. Biochem Pharmcol 1973, 22, 3099-3108).

T1 sequence (Q04609 whole entry): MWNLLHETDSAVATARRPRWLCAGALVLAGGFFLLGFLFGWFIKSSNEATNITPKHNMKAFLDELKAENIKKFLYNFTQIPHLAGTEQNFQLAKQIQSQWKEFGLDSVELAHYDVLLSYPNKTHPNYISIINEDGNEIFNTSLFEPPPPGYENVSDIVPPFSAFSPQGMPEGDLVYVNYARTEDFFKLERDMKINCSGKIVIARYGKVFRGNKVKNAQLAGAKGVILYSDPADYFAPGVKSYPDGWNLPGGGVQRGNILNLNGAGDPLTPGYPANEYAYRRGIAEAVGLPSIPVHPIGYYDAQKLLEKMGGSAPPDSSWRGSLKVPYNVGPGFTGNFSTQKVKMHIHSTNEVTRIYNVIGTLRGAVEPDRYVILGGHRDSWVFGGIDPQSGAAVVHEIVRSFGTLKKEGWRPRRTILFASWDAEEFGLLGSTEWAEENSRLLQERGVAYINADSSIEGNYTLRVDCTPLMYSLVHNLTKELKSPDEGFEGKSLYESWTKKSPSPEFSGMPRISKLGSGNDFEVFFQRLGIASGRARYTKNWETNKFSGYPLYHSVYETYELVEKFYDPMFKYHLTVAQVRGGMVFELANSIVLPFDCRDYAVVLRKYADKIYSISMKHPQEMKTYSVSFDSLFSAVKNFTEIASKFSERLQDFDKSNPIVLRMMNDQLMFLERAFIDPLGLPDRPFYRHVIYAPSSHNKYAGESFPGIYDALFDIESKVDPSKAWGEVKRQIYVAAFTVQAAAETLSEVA

SMILES	blockade of [^99mTc]L1 binding to tumor and renal cortex (LNCaP (PSMA+) tumor)	fluorescent signal in live cells (internalization) (PSMA+ PC3 PIP cells)	Ki (PSMA; LNCaP cell extracts, Cheng-Prusoff conversion, read-out: Ki (PSMA inhibitory activity)) [nM]	fold higher PSMA inhibitory activity than ReL1 (PSMA; relative to ReL1) [fold]
O=C(O)CCC(CP(=O)(O)O)C(=O)O (stereo not shown) [PMPA, 2-(phosphonomethyl)pentanedioic acid]	capable of eliminating binding of [^99mTc]L1	–	–	–
O=C(O)CCC(NC(=O)NC(CCCCNC(=O)CCCCCCC(=O)NC(CCCCN(Cc1ccc2ccccc2n1)Cc1ccc2ccccc2n1)C(=O)O)C(=O)O)C(=O)O.[Br-].[C-]#[O+].[C-]#[O+].[C-]#[O+].[Re+] (stereo not drawn) [ReL2, Tricarbonyl(2-[3-(5-{7-[5-(bis-quinolin-2-ylmethyl-amino)-1-carboxy-pentylcarbamoyl]-heptanoylamino}-1-carboxy-pentyl)-ureido]-pentanedioic acid) rhenium bromide]	–	weak but observable fluorescent signal from within the PSMA+ PC3 PIP cells	0.5	20
